Laboratory results: ChEMBL document CHEMBL1149918, “Novel 1,5-benzodiazepindione gastrin/CCKB antagonists” (Bioorg Med Chem Lett, 1997)

Columns and labels:
[1] = Compound was tested for plasma clearance in rat; format: ADME, organism-based; settings: read-out: Clp
[2] = Oral bioavailability in rat; format: ADME, organism-based; settings: in vivo
[3] = molecular target: T1, Gastrin/cholecystokinin type B receptor (Homo sapiens, UniProt P32239); experiment: Tested for its selectivity against human Cholecystokinin type B receptor isolated from a human temporal cortex cDNA library and stably transfected into a HeLa cell line. (n=1); format: cell-based
T1 sequence (P32239 whole entry): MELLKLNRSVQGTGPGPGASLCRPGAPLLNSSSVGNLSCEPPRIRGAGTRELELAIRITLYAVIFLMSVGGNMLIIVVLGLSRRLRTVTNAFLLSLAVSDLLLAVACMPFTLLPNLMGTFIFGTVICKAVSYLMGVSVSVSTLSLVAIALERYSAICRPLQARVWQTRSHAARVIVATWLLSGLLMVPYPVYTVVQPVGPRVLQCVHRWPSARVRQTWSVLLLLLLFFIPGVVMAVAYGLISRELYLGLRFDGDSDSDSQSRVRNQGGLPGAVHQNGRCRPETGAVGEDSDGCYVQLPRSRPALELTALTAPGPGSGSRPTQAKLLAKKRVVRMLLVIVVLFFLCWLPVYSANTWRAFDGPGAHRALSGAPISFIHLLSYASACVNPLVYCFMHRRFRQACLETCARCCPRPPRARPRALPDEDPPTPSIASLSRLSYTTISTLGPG

[4] = molecular target: T2, Cholecystokinin receptor type A (Homo sapiens, UniProt P32238); experiment: Tested for its selectivity against human Cholecystokinin type A receptor isolated from a human gallbladder cDNA library and stably transfected into a COSM6 cell line; (n=1); format: cell-based
T2 sequence (P32238 whole entry): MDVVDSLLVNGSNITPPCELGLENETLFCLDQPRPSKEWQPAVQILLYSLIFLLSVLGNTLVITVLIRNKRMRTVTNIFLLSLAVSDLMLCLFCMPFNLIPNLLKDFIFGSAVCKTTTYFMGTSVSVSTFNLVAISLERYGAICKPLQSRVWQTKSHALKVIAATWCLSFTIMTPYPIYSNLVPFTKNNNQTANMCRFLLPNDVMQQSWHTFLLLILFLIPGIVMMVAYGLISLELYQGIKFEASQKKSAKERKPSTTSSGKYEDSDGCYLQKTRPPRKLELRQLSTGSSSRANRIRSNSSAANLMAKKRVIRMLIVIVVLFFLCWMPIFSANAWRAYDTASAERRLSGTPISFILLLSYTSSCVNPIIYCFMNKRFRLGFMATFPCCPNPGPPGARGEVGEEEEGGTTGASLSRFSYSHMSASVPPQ

[5] = molecular target: T3, Gastrin/cholecystokinin type B receptor (Rattus norvegicus) (UniProt P30553); settings: Gastric mucosa
T3 sequence (whole entry): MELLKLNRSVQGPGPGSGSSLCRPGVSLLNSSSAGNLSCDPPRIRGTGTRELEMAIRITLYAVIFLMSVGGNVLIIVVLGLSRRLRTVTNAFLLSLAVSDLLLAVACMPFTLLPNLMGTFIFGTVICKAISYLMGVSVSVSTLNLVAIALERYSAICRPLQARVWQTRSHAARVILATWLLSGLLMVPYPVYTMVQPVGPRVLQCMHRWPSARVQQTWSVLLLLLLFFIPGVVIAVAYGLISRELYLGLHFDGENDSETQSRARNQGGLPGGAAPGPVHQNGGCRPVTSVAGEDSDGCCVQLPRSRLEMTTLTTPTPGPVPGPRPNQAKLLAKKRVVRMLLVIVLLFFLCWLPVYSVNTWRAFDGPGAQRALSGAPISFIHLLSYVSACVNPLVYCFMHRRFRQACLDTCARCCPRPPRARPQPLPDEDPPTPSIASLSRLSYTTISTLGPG

[6] = molecular target: T4, Cholecystokinin receptor type A (Cavia porcellus) (UniProt Q63931); experiment: Tested for selectivity toward Cholecystokinin type A receptor by guinea -pig isolated ileum longitudinal muscle-myenteric plexus (GPI) assay; format: tissue-based
T4 sequence (whole entry): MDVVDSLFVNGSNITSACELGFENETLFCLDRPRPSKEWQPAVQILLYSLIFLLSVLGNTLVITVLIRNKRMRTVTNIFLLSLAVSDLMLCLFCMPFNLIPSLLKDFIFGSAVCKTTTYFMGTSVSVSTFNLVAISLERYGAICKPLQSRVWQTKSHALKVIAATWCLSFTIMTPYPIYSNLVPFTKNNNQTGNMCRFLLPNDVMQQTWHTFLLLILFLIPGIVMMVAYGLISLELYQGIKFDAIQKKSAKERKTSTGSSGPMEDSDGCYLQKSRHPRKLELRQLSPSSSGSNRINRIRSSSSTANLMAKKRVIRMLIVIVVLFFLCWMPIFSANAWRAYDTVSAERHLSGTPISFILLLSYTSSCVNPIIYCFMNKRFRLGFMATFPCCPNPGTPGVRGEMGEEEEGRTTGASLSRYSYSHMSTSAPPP

[7] = molecular target: T3, Gastrin/cholecystokinin type B receptor (Rattus norvegicus); experiment: Tested for selectivity toward gastrin receptor by the ability to block pentagastrin stimulated acid secretion from isolated rat gastric mucosa (RGM); format: tissue-based
Rattus norvegicus [8] = experiment: Tested for its ability to inhibit acid secretion in the pentagastrin stimulated gastric fistula rat model by intra gastric dose of 1 mg/kg; format: functional; settings: Stomach
Rattus norvegicus [9] = experiment: Tested for its ability to inhibit acid secretion in the pentagastrin stimulated gastric fistula rat model by intravenous dose of 0.1 mg/kg; format: functional; settings: Stomach
Rattus norvegicus [10] = experiment: Tested for its ability to inhibit acid secretion in the pentagastrin stimulated gastric fistula rat model by intra gastric dose of 0.3 mg/kg; format: functional; settings: Stomach
Rattus norvegicus [11] = experiment: Tested for its ability to inhibit acid secretion in the pentagastrin stimulated gastric fistula rat model by intravenous dose of 0.3 mg/kg; format: functional; settings: Stomach
Rattus norvegicus [12] = experiment: Compound was tested for its ability to inhibit acid secretion in the pentagastrin stimulated gastric fistula rat model by intra gastric dose of 1 mg/kg; format: functional; settings: Stomach
Rattus norvegicus [13] = experiment: Compound was tested for its ability to inhibit acid secretion in the pentagastrin stimulated gastric fistula rat model by intravenous dose of 1 mg/kg; format: functional; settings: Stomach
[14] = molecular target: T2, Cholecystokinin receptor type A; experiment: Tested for its selectivity against human Cholecystokinin type A receptor isolated from a human gallbladder cDNA library and stably transfected into a COSM6 cell line (n=1); format: cell-based

| SMILES | clearance [1] | bioavailability [2] | Ki [3] | Ki [4] | pKB [6] | pKB [7] | further results |
| --- | --- | --- | --- | --- | --- | --- | --- |
| O=C(Nc1ccc(F)cc1)NC1C(=O)N(CC(=O)N2CC3CCC(CC3)C2)c2ccccc2N(c2ccccc2F)C1=O (racemic) | 28 mL/min/kg | 7% | 0.398 nM | 10 nM |  |  |  |
| Cc1cccc(NC(=O)N[C@@H]2N=C(c3ccccc3)c3ccccc3N(C)C2=O)c1 |  |  |  |  | 7.7 |  | pKB [5]: 7.6 |
| O=C(Nc1cccc(C2N=NN=N2)c1)NC1C(=O)N(CC(=O)N2CCCC2)c2ccccc2N(c2ccccc2)C1=O (stereo unspecified) |  |  |  |  | 7.4 | 10.3 | inhibition in vivo at 1 mg/kg (Rattus norvegicus [8]): 45%; inhibition in vivo at 0.1 mg/kg (Rattus norvegicus [9]): 79% |
| O=C(Nc1ccc(F)cc1)N[C@H]1C(=O)N(CC(=O)N2CCCC2)c2ccccc2N(C2CCCCC2)C1=O | 36 mL/min/kg | 23% | 2.51 nM | 79.4 nM |  |  | inhibition in vivo at 0.3 mg/kg (Rattus norvegicus [10]): 67%; inhibition in vivo at 0.3 mg/kg (Rattus norvegicus [11]): 60% |
| O=C(Nc1ccccc1)NC1C(=O)N(CC(=O)N2CCCC2)c2ccccc2N(c2ccccc2)C1=O (stereo unspecified) |  |  |  |  | 7.3 | 8.5 |  |
| O=C(Nc1ccc(F)cc1)NC1C(=O)N(CC(=O)N2CCCC2)c2ccccc2N(c2ccccc2F)C1=O (stereo unspecified) | 15 mL/min/kg | 68% | 12.6 nM |  | 6.8 | 8.6 | inhibition in vivo at 1 mg/kg (Rattus norvegicus [12]): 73%; inhibition in vivo at 1 mg/kg (Rattus norvegicus [13]): 86%; Ki [14]: 50.1 nM |
| O=C(Nc1ccc(F)cc1)N[C@H]1C(=O)N(CC(=O)N2CCCC2)c2ccccc2N(C2CCCCCC2)C1=O |  | 10% | 1.58 nM | 79.4 nM |  |  |  |
| O=C(Nc1cccc(C(=O)O)c1)NC1C(=O)N(CC(=O)N2CCCC2)c2ccccc2N(c2ccccc2)C1=O (stereo unspecified) |  |  |  |  | 5.7 | 8.6 |  |
